In assay [1] the target is T1, glucagon receptor (GCGR) overexpressed CHO-K1 cells or human primary hepatocytes (Homo sapiens, UniProt P47871).
T1 construct: expressed in transfected cells; host or cells: GCGR overexpressed CHO-K1 cells or human primary hepatocytes (endogenous receptor)
Put plainly: Glucagon cAMP inhibition assay (Cisbio cAMP Dynamic 2 HTRF). It counts as cell-based. The method, then: Glucagon cAMP Inhibition Assay
Downstream secondary messenger cAMP induced by glucagon was detected by Cisbio cAMP Dynamic 2 kit. Testing compounds were each prepared as a dimethyl sulfoxide (DMSO) solution at the concentration of 10 mM. To evaluate the potency of compounds in inhibiting the cAMP production, glucagon receptor (GCGR) overexpressed CHO-K1 cells or human primary hepatocytes were treated with compounds with a serial dilution. The cells were re-suspended in Hank's Balanced Salt solution (HBSS) contained 0.1% (w/v) bovine serum albumin and 800 nM 3-isobutyl-1-methylxanthine (IBMX) and seeded into low volume, 384 wells white plate. The diluted compounds were then added into the plate for 30 minutes pre-incubation where the final DMSO concentration was 1%. The cells were stimulated with glucagon at the concentration equaled to EC50 (an indicium of the concentration of a drug that gives half-maximal response) for 30 minutes at room temperature. After incubation, lysis buffer contain cAMP antibody and fluorescence acceptor were added into each well for additional 60 minutes incubation. Results were recorded by Molecular Devices SpectraMax Paradigm with the HTRF Detection Cartridges and the IC50 value of each compound in inhibiting the cAMP production was calculated with non-linear regression based on the amount of cAMP production.
Background: TR-FRET usually uses a lanthanide donor and a delayed reading to cut background.

Another assay has as its target T2, glucagon receptor (GCGR) (Homo sapiens, UniProt P47871).
T2 construct: expressed in transfected cells; host or cells: CHO-K1 cells overexpressing GCGR (membrane fractions)
The experiment in a line: I125-glucagon binding assay (competition, GCGR membrane fractions). As for the experimental part:
I^125-Glucagon Binding Assay
The binding affinity of each compound was evaluated by a competition assay with I^125-glucagon. GCGR membrane fractions were obtained from GCGR overexpressed CHO-K1 cells as a stock of 1 mg/ml concentration. To evaluate the IC50 of compounds binding to GCGR, GCGR membrane fractions were treated with compounds with a serial dilution. The membrane fractions were diluted to 7.5 microgram per well in 70 microliter assay buffer contained 50 mM Tris pH 7.4 and 0.5% (w/v) bovine serum albumin and added into 96 wells plate. The membrane fractions were then mixed with 10 microliter diluted compounds. After 5 minutes pre-incubation, 20 microliter I^125 labeled glucagon (Perkin Elmer) was added into each well at the final concentration of 0.0625 nM. The assay mixtures were incubated at 25° C. for 30 minutes and then transferred onto the Millipore MultiScreen GF/B Plate coated with 0.5% (w/v) Polyethyleneimine. The filter plate was washed with wash buffer contained 50 mM Tris pH 7.4 for 2 times, 300 microliter each time. The residual isotope was detected by Hidex CHAMELEON V micro-beta counter and the IC50 value of each compound binding to GCGR was calculated with non-linear regression.

Setting [2] is: inhibition of glucagon (EC50 concentration) induced cAMP production.
The mark [3] stands for this setting: competition with I125-glucagon 0.0625 nM, membrane fractions of GCGR overexpressed CHO-K1 cells.

As usually defined, the IC50 is the concentration that inhibits the measured activity by half.

Where two headings read alike, the source gives them in different places.

T1 sequence (P47871 26-477): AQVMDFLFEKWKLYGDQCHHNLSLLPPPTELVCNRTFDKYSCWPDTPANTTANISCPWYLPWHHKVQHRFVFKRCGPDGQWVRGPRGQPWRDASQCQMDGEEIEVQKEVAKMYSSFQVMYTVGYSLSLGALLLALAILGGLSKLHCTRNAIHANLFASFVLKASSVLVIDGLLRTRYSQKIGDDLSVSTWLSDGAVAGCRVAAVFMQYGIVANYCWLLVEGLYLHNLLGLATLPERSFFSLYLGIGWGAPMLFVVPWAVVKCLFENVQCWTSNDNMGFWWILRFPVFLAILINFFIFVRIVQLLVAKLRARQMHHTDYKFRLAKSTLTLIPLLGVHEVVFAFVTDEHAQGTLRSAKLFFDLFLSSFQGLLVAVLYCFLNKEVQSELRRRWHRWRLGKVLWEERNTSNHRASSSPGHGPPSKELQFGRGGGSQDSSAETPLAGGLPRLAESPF
T2 sequence (P47871 26-477): as above

Consider `O=C(O)CCNC(=O)c1ccc(N[C@H](COc2ccc(C(F)(F)F)cn2)c2ccc(-c3ccc(C(F)(F)F)cc3)cc2)cc1` [Compound 15-27, (S)-3-(4-((1-(4′-(trifluoromethyl)-[1,1′-biphenyl]-4-yl)-2-((5-(trifluoromethyl)pyridin-2-yl)oxy)ethyl)amino)benzamido)propanoic Acid], for which the “IC50 cAMP” value in assay [1] came out at 0.316 µM. At glucagon receptor (GCGR), this molecule showed an IC50 of 101 nM.
Take `CC[C@H](C)[C@H](Nc1ccc(C(=O)NCCC(=O)O)cc1)C(=O)Nc1ccc(-c2cc3ccccc3o2)cc1` [Compound 23-31, 3-(4-(((2S,3S)-1-((4-(benzofuran-2-yl)phenyl)amino)-3-methyl-1-oxopentan-2-yl)amino)benzamido)propanoic Acid]: the “IC50 cAMP” value in assay [1] was found to be 4.145 µM. Further, the IC50 on glucagon receptor (GCGR) came to 294 nM.
For `CCCOC[C@H](Cc1ccc(-c2cccc(OC(F)(F)F)c2)cc1)Nc1ccc(C(=O)NCCC(=O)O)cc1` [Compound 19-25, (S)-3-(4-((1-propoxy-3-(3′-(trifluoromethoxy)-[1,1′-biphenyl]-4-yl)propan-2-yl)amino)benzamido)propanoic Acid], in that order: 1.513 µM and 1280 nM.
Take `O=C(O)CCNC(=O)c1ccc(N[C@@H](Cc2cccc3ccccc23)C(=O)Nc2ccc(-c3cc4ccccc4o3)cc2)cc1` [Compound 23-16]: the “IC50 cAMP” value in assay [1] came to 1.193 µM. The molecule also came in with an IC50 on glucagon receptor (GCGR) of 3010 nM.
In the case of `CC(C)C[C@@H](COc1cnc(-c2ccc(C(F)(F)F)cc2Cl)nc1)Nc1ccc(C(=O)NCCC(=O)O)cc1` [Compound 12-9, (S)-3-(4-((1-((2-(2-chloro-4-(trifluoromethyl)phenyl)pyrimidin-5-yl)oxy)-4-methylpentan-2-yl)amino)benzamido)propanoic Acid], the “IC50 cAMP” value in assay [1] (setting [2]) is 19.185 µM. This molecule also displayed an IC50 on glucagon receptor (GCGR) (setting [3]) of 501 nM.
As to `CC[C@H](C)[C@@H](COc1ccc(-c2ccc(Cl)cc2Cl)c(F)c1)Nc1ccc(C(=O)NCCC(=O)O)cc1` [Compound 8-11, 3-(4-(((2S,3S)-1-((2′,4′-dichloro-2-fluoro-[1,1′-biphenyl]-4-yl)oxy)-3-methylpentan-2-yl)amino)benzamido)propanoic Acid], in assay [1] (setting [2]), the “IC50 cAMP” value is 0.2691 µM. Moreover, the IC50 at glucagon receptor (GCGR) (setting [3]) was 51 nM.
With `CC(C)C[C@H](Cc1ccc(-c2cc3ccccc3o2)cc1)Nc1ccc(C(=O)NCCC(=O)O)cc1` [Compound 19-5, (R)-3-(4-((1-(4-(benzofuran-2-yl)phenyl)-4-methylpentan-2-yl)amino)benzamido)propanoic Acid], in assay [1], the “IC50 cAMP” value came to 1.082 µM. Besides, the IC50 on glucagon receptor (GCGR) turned out to be 163 nM.
On to `CC(C)(C)[C@@H](COc1ccc(-c2cc3ccccc3o2)c(Cl)c1)Nc1ccc(C(=O)NCCC(=O)O)cc1` [Compound 3-23, (S)-3-(4-((1-(4-(benzofuran-2-yl)-3-chlorophenoxy)-3,3-dimethylbutan-2-yl)amino)benzamido)propanoic Acid], for which the “IC50 cAMP” value in assay [1] (setting [2]) was found to be 0.293 µM. The half-inhibitory concentration (IC50) at glucagon receptor (GCGR) (setting [3]) was 156 nM.
Taken in the same sequence, the figures for `CC(C)[C@@H](COc1ccc(-c2ccc(N(C)C)cc2Cl)cc1)Nc1ccc(C(=O)NCCC(=O)O)cc1` [Compound 1-37, (S)-3-(4-((1-((2′-chloro-4′-(dimethylamino)-[1,1′-biphenyl]-4-yl)oxy)-3-methylbutan-2-yl)amino)benzamido)propanoic Acid] were 0.376 µM and 372 nM.
Take `CCCC[C@@H](COc1nnc(-c2ccc(Cl)cc2Cl)o1)Nc1ccc(C(=O)NCCC(=O)O)cc1` [Compound 22-6, (S)-3-(4-((1-((5-(2,4-dichlorophenyl)-1,3,4-oxadiazol-2-yl)oxy)hexan-2-yl)amino)benzamido)propanoic Acid]: the “IC50 cAMP” value in assay [1] is more than 30 µM. Further, the IC50 at glucagon receptor (GCGR) is more than 30000 nM.
Taken in the same sequence, the figures for `O=C(O)CCNC(=O)c1ccc(N[C@H](Cc2ccc(-c3ccc(C(F)(F)F)cc3)cc2)C(=O)Nc2ccc(OC(F)(F)F)cc2)cc1` [Compound 24-28, (R)-3-(4-((1-oxo-1-((4-(trifluoromethoxy)phenyl)amino)-3-(4′-(trifluoromethyl)-[1,1′-biphenyl]-4-yl)propan-2-yl)amino)benzamido)propanoic Acid] were 1.54 µM and 46.5 nM.
For the molecule `CC(C)[C@@H](COc1ccc(-c2cc3ccccc3o2)nc1)Nc1ccc(C(=O)NCCC(=O)O)cn1` [Compound 11-2, (S)-3-(6-((1-((6-(benzofuran-2)pyridin-3-yl)oxy)-3-methylbutan-2-yl)amino)nicotinamido)propanoic Acid], the “IC50 cAMP” value in assay [1] (setting [2]) amounted to 14.398 µM. On glucagon receptor (GCGR) (setting [3]), this molecule yielded an IC50 of 926 nM.
Taken in the same sequence, the figures for `CC[C@H](C)[C@@H](COc1ccc(-c2ccc(Cl)cc2Cl)cc1)Nc1ccc(C(=O)NCCC(=O)O)cn1` [Compound 4-3, 3-(6-(((2S,3S)-1-((2′,4′-dichloro-[1,1′-biphenyl]-4-yl)oxy)-3-methylpentan-2-yl)amino)nicotinamido)propanoic Acid] were 0.414 µM and 610 nM.
With `CC(C)(C)c1ccc(NC(=O)[C@H](Cc2ccc3ccccc3c2)Nc2ccc(C(=O)NCCC(=O)O)cc2)cc1` [Compound 23-20, (S)-3-(4-((1-((4-(tert-butyl)phenyl)amino)-3-(naphthalen-2-yl)-1-oxopropan-2-yl)amino)benzamido)propanoic Acid], in assay [1], the “IC50 cAMP” value amounted to 4.7 µM. For the same molecule, the IC50 on glucagon receptor (GCGR) amounted to 724 nM.
Taken in the same sequence, the figures for `Cc1c(-c2nnc([C@H](Cc3ccc(-c4ccc(C(F)(F)F)cc4)cc3)Nc3ccc(C(=O)NCCC(=O)O)cc3)o2)oc2ccccc12` [Compound 20-6, (S)-3-(4-((1-(5-(3-methylbenzofuran-2-yl)-1,3,4-oxadiazol-2-yl)-2-(4′-(trifluoromethyl)-[1,1′-biphenyl]-4-yl)ethyl)amino)benzamido)propanoic Acid] were more than 30 µM and 2680 nM.
Take `CCCC[C@@H](COc1ccc(-c2ccc(C(F)(F)F)cc2F)cc1)Nc1ccc(C(=O)NCCC(=O)O)cc1` [Compound 1-27, (S)-3-(4-((1-((2′-fluoro-4′-(trifluoromethyl)-[1,1′-biphenyl]-4-yl)oxy)hexan-2-yl)amino)benzamido)propanoic Acid]: in assay [1] (setting [2]), the “IC50 cAMP” value was found to be 0.0965 µM. At glucagon receptor (GCGR) (setting [3]), the half-inhibitory concentration (IC50) is 108 nM.
As to `CCOC(=O)CCNC(=O)c1ccc(N[C@H](Cc2ccc(-c3cc4ccccc4o3)cc2)C(=O)NC(C)C)cc1` [Compound 24-21, Ethyl (R)-3-(4-((3-(4-(benzofuran-2-yl)phenyl)-1-(isopropylamino)-1-oxopropan-2-yl)amino)benzamido)propanoate], the “IC50 cAMP” value in assay [1] (uM) was more than 10 µM. The IC50 at glucagon receptor (GCGR) was 4100 nM.
As to `CCCC[C@@H](COc1ccc(-c2cc3ccccc3o2)c(F)c1)Nc1ccc(C(=O)NCCC(=O)O)cc1` [Compound 8-13, (S)-3-(4-((1-(4-(benzofuran-2-yl)-3-fluorophenoxy)hexan-2-yl)amino)benzamido) propanoic Acid], the “IC50 cAMP” value in assay [1] (setting [2]) turned out to be 0.084 µM. Moreover, the IC50 on glucagon receptor (GCGR) (setting [3]) came out at 44 nM.
Turning to `CC(C)CC[C@@H](Cc1ccc(-c2ccc(C(F)(F)F)cc2)cc1)Nc1ccc(C(=O)NCCC(=O)O)cc1` [Compound 19-10, (S)-3-(4-((5-methyl-1-(4′-(trifluoromethyl)-[1,1′-biphenyl]-4-yl)hexan-2-yl)amino)benzamido)propanoic Acid], in assay [1], the “IC50 cAMP” value came out at 0.373 µM. On glucagon receptor (GCGR), the IC50 amounted to 195 nM.
Taken in the same sequence, the figures for `CC(C)C[C@@H](Nc1ccc(C(=O)NCCC(=O)O)cc1)C(=O)Nc1ccc(-c2cc3ccccc3o2)cc1` [Compound 24-2, (R)-3-(4-((1-((4-(benzofuran-2-yl)phenyl)amino)-4-methyl-1-oxopentan-2-yl)amino)benzamido)propanoic Acid] were 0.5986 µM and 311 nM.
As for `Cc1nn(-c2ncc(OC[C@H](CC(C)C)Nc3ccc(C(=O)NCCC(=O)O)cc3)cn2)cc1C(F)(F)F` [Compound 12-1, (S)-3-(4-((4-methyl-1-((2-(3-methyl-4-(trifluoromethyl)-1H-pyrazol-1-yl)pyrimidin-5-yl)oxy)pentan-2-yl)amino)benzamido)propanoic Acid], in assay [1] (setting [2]), the “IC50 cAMP” value turned out to be 14.17 µM. On glucagon receptor (GCGR) (setting [3]), this molecule gave an IC50 of 674 nM.

(Values after US11384060B2, “Amide compounds and use thereof” (ALPHALA CO., LTD., priority 2017, dated 2022).)
